target: T1, mTOR (Homo sapiens, UniProt P42345); experiment: In Vitro mTOR Kinase Assay (Echo), Test (a)(ii); assay type: biochemical; details: read-out: mTOR Kinase Assay (Echo)
T1 construct: FLAG; made in house
Method in brief: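 FLAG-tagged truncated mTOR (residues 1362-2549), expressed in HEK293 and purified via the FLAG tag, phosphorylated a biotinylated peptide over 2 hours at room temperature. EDTA stopped the reaction. Phospho-T389 was detected overnight by AlphaScreen using the p70 S6K T389 antibody with Protein A/streptavidin beads; IC50 reported.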

T1 sequence (P42345 1362-2549): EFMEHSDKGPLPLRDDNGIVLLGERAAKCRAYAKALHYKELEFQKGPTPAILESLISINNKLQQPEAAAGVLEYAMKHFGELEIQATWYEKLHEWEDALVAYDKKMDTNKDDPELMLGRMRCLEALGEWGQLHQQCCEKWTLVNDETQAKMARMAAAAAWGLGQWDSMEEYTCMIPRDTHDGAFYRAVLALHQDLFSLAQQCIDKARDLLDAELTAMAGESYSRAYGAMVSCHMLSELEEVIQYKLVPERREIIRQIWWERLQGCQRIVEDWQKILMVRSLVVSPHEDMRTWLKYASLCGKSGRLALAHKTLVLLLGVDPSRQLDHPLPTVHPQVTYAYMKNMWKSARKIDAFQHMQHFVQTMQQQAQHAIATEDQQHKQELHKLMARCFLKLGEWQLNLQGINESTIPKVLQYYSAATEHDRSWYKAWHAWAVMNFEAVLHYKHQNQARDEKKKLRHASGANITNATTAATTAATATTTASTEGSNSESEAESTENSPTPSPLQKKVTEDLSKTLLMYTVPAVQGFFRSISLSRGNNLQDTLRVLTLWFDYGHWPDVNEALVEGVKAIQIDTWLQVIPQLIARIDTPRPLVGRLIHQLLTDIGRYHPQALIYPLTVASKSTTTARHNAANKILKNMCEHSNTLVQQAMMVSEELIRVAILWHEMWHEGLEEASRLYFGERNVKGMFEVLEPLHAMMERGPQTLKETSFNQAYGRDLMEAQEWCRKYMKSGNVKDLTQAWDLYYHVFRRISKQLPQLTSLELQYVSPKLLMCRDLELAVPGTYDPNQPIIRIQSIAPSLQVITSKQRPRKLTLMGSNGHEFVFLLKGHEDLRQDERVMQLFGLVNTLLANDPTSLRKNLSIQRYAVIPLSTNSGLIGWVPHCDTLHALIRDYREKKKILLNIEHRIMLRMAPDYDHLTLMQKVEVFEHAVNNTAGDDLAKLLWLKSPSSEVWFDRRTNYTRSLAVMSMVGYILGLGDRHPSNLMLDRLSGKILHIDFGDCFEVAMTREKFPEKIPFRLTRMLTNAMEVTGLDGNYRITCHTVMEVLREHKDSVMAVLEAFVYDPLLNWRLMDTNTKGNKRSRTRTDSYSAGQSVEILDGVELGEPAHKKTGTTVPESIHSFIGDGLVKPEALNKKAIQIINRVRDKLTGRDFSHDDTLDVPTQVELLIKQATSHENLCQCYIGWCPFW

IC50	Structure (SMILES)
6.41 nM	C[C@H]1COCCN1c1cc(C2(S(C)(=O)=O)CC2)nc(-c2ccc(NC(=O)NC3COC3)cc2)n1 [Example 2ac, 1-[4-[4-[(3S)-3-methylmorpholin-4-yl]-6-(1-methylsulfonylcyclopropyl)pyrimidin-2-yl]phenyl]-3-(oxetan-3-yl)urea]
10.1 nM	CC(C)(CO)NC(=O)Nc1ccc(-c2nc(N3CCOCC3)cc(C3(S(C)(=O)=O)CCCC3)n2)cc1 [Example 12m, 3-(1-hydroxy-2-methylpropan-2-yl)-1-[4-[4-(1-methylsulfonylcyclopentyl)-6-morpholin-4-ylpyrimidin-2-yl]phenyl]urea]
50.2 nM	C[C@H]1COCCN1c1cc(C2(S(=O)(=O)c3ccccc3C(F)(F)F)CC2)nc(-c2ccc(NC(=O)NC(C)(C)CO)cc2)n1 [Example 10k, 3-(1-hydroxy-2-methyl-propan-2-yl)-1-[4-[4-[(3S)-3-methylmorpholin-4-yl]-6-[1-[2-(trifluoromethyl)phenyl]sulfonylcyclopropyl]pyrimidin-2-yl]phenyl]urea]
1.55 nM	CS(=O)(=O)C1(c2cc(N3CCOCC3)nc(-c3ccc(NC(=O)NCCO)cc3)n2)CC1 [Example 12d, 3-(2-hydroxyethyl)-1-[4-[4-(1-methylsulfonylcyclopropyl)-6-morpholin-4-ylpyrimidin-2-yl]phenyl]urea]
2.16 nM	CCNC(=O)Nc1ccc(-c2nc(N3CCOC[C@@H]3C)cc(C3(S(C)(=O)=O)CCCC3)n2)cc1 [Example 4a, 3-ethyl-1-[4-[4-[(3S)-3-methylmorpholin-4-yl]-6-(1-methylsulfonylcyclopentyl)pyrimidin-2-yl]phenyl]urea]
9.05 nM	C[C@H]1COCCN1c1cc(C2(S(C)(=O)=O)CCCC2)nc(-c2ccc(NC(=O)Nc3ccc(C(F)(F)F)cc3)cc2)n1 [Example 4k, 1-[4-[4-[(3S)-3-methylmorpholin-4-yl]-6-(1-methylsulfonylcyclopentyl)pyrimidin-2-yl]phenyl]-3-[4-(trifluoromethyl)phenyl]urea]

same assay, conditions: table of enzyme assay Test (a)(ii); read-out: Test (a)(ii) IC50

IC50	Structure (SMILES)
12.6 nM	C[C@H]1COCCN1c1cc(C2(S(=O)(=O)c3ccc(F)c(Cl)c3)CC2)nc(-c2ccc(NC(=O)NCCF)cc2)n1 [Example 95d, 1-[4-[4-[1-(3-chloro-4-fluorophenyl)sulfonyl-cyclopropyl]-6-[(3S)-3-methylmorpholin-4-yl]pyrimidin-2-yl]phenyl]-3-(2-fluoroethyl)urea]
5.26 nM	C[C@H]1COCCN1c1cc(C2(S(=O)(=O)c3ccc(C(N)=O)cc3Cl)CC2)nc(-c2ccc(NC(=O)NC3CC3)cc2)n1 [Example 85b, 3-chloro-4-[1-[2-[4-(cyclopropylcarbamoylamino)phenyl]-6-[(3S)-3-methylmorpholin-4-yl]pyrimidin-4-yl]cyclopropyl]sulfonylbenzamide]
13.9 nM	CNC(=O)Nc1ccc(-c2nc(N3CCOC[C@@H]3C)cc(C3(S(=O)(=O)c4ccc(F)c(Cl)c4)CC3)n2)cc1 [Example 95a, 1-[4-[4-[1-(3-chloro-4-fluorophenyl)sulfonyl-cyclopropyl]-6-[(3S)-3-methylmorpholin-4-yl]pyrimidin-2-yl]phenyl]-3-methylurea]
5.99 nM	C[C@H]1COC[C@H](C)N1c1cc(C2(S(=O)(=O)C3CC3)CC2)nc(-c2ccc(NC(=O)NCCF)cc2)n1 [Example 92e, 1-[4-[4-(1-cyclopropylsulfonylcyclopropyl)-6-[(3S,5S)-3,5-dimethylmorpholin-4-yl]pyrimidin-2-yl]phenyl]-3-(2-fluoroethyl)urea]
7.93 nM	C[C@H]1COC[C@H](C)N1c1cc(C2(S(=O)(=O)C3CC3)CC2)nc(-c2ccc(NC(=O)NC3CC3)cc2)n1 [Example 92, 3-Cyclopropyl-1-[4-[4-(1-cyclopropylsulfonylcyclopropyl)-6-[(3S,5S)-3,5-dimethylmorpholin-4-yl]pyrimidin-2-yl]phenyl]urea]
6.87 nM	C[C@H]1COCCN1c1cc(C2(S(=O)(=O)c3ccccc3Cl)CC2)nc(-c2ccc(NC(=O)NC3CC3)cc2)n1 [Example 76, 1-[4-[4-[1-(2-Chlorophenyl)sulfonylcyclopropyl]-6-[(3S)-3-methylmorpholin-4-yl]pyrimidin-2-yl]phenyl]-3-cyclopropylurea]
2.79 nM	CC[C@H]1COCCN1c1cc(C2(S(=O)(=O)c3ccccc3)CC2)nc(-c2ccc(NC(=O)NCC(F)F)cc2)n1 [Example 74d, 1-[4-[4-[1-(benzenesulfonyl)cyclopropyl]-6-[(3S)-3-ethylmorpholin-4-yl]pyrimidin-2-yl]phenyl]-3-(2,2-difluoroethyl)urea]
2.29 nM	Cc1csc(S(=O)(=O)C2(c3cc(N4CCOC[C@@H]4C)nc(-c4ccc(NC(=O)N[C@H](C)CO)cc4)n3)CCC2)n1 [Example 98f, 3-[(2R)-1-hydroxypropan-2-yl]-1-[4-[4-[(3S)-3-methylmorpholin-4-yl]-6-[1-[(4-methyl-1,3-thiazol-2-yl)sulfonyl]cyclobutyl]pyrimidin-2-yl]phenyl]urea]
8.29 nM	CC[C@H]1COCCN1c1cc(C2(S(C)(=O)=O)CC2)nc(-c2ccc(NC(=O)NCCF)cc2)n1 [Example 84c, 1-[4-[4-[(3S)-3-ethylmorpholin-4-yl]-6-(1-methylsulfonylcyclopropyl)pyrimidin-2-yl]phenyl]-3-(2-fluoroethyl)urea]

Further lines, the compound ahead of its results:

Structure (SMILES)	IC50
C[C@H]1COCCN1c1cc(C2(S(=O)(=O)c3ccc(C(=O)N(C)C)cn3)CC2)nc(-c2ccc(NC(=O)NC3CC3)cc2)n1 [Example 49a]	2.67 nM
C[C@H]1COCCN1c1cc(C2(S(=O)(=O)c3nccs3)CC2)nc(-c2ccc(NC(=O)NC3CC3)cc2)n1 [Example 39, 3-Cyclopropyl-1-[4-[4-[(3S)-3-methylmorpholin-4-yl]-6-[1-(1,3-thiazol-2-ylsulfonyl)cyclopropyl]pyrimidin-2-yl]phenyl]urea]	0.351 nM
N#CCCNC(=O)Nc1ccc(-c2nc(N3CCOCC3)cc(C3(S(=O)(=O)c4ccncc4)CC3)n2)cc1 [Example 36aw, 3-(2-cyanoethyl)-1-[4-[4-morpholin-4-yl-6-(1-pyridin-4-ylsulfonylcyclopropyl)pyrimidin-2-yl]phenyl]urea]	16.4 nM
C[C@H]1COCCN1c1cc(C2(S(=O)(=O)c3cc(F)cc(F)c3)CC2)nc(-c2ccc(NC(=O)Nc3cnn(C)c3)cc2)n1 [Example 19m, 1-[4-[4-[1-(3,5-difluorophenyl)sulfonylcyclopro-pyl]-6-[(3S)-3-methylmorpholin-4-yl]pyrimidin-2-yl]phenyl]-3-(1-methylpyrazol-4-yl)urea]	0.944 nM
CNC(=O)Nc1ccc(-c2nc(N3CCOC[C@@H]3C)cc(C3(S(=O)(=O)c4ccc(F)cc4)CC3)n2)cn1 [Example 14j, 1-[5-[4-[1-(4-fluorophenyl)sulfonylcyclopro-pyl]-6-[(3S)-3-methylmorpholin-4-yl]pyrimidin-2-yl]pyridin-2-yl]-3-methylurea]	12.9 nM
C[C@H]1COCCN1c1cc(C2(S(=O)(=O)CCO)CC2)nc(-c2ccc(NC(=O)NCc3ncc[nH]3)cc2)n1 [Example 16h, 1-[4-[4-[1-(2-hydroxyethylsulfonyl)cyclopropyl]-6-[(3S)-3-methylmorpholin-4-yl]pyrimidin-2-yl]phenyl]-3-(1H-imidazol-2-ylmethyl)urea]	186 nM
Cc1csc(S(=O)(=O)C2(c3cc(N4CCOC[C@@H]4C)nc(-c4ccc(NC(=O)NCCCO)cc4)n3)CCCC2)n1 [Example 36dn, 3-(3-hydroxypropyl)-1-[4-[4-[(3S)-3-methylmorpholin-4-yl]-6-[1-[(4-methyl-1,3-thiazol-2-yl)sulfonyl]cyclopentyl]pyrimidin-2-yl]phenyl]urea]	13.8 nM
CNC(=S)Nc1ccc(-c2nc(N3CCOC[C@@H]3C)cc(C3(S(=O)(=O)c4ccc(F)cc4)CC3)n2)cc1 [Example 37s, 1-[4-[4-[1-(4-fluorophenyl)sulfonylcyclopropyl]-6-[(3S)-3-methylmorpholin-4-yl]pyrimidin-2-yl]phenyl]-3-methylthiourea]	7.56 nM
C[C@H]1COCCN1c1cc(C2(S(=O)(=O)c3ccccc3)CCOCC2)nc(-c2ccc(NC(=O)NC3CC3)cc2)n1 [Example 36da, 1-[4-[4-[4-(benzenesulfonyl)oxan-4-yl]-6-[(3S)-3-methylmorpholin-4-yl]pyrimidin-2-yl]phenyl]-3-cyclopropylurea]	33.1 nM
CCNC(=O)Nc1ccc(-c2nc(N3CCOC[C@@H]3C)cc(C3(S(C)(=O)=O)CCCC3)n2)cc1 [Example 4a, 3-ethyl-1-[4-[4-[(3S)-3-methylmorpholin-4-yl]-6-(1-methylsulfonylcyclopentyl)pyrimidin-2-yl]phenyl]urea]	2.17 nM
C[C@H]1COCCN1c1cc(C2(S(=O)(=O)c3ccc(F)cc3)CC2)nc(-c2ccc(NC(=S)NC3CC3)cc2)n1 [Example 37t, 3-cyclopropyl-1-[4-[4-[1-(4-fluorophenyl)sulfonylcyclopropyl]-6-[(3S)-3-methylmorpholin-4-yl]pyrimidin-2-yl]phenyl]thiourea]	8.89 nM
C[C@H]1COCCN1c1cc(C2(S(=O)(=O)C(C)(C)C)CC2)nc(-c2ccc(NC(=O)NCCN(C)C)cc2)n1 [Example 18f, 1-[4-[4-(1-tert-butylsulfonylcyclopropyl)-6-[(3S)-3-methylmorpholin-4-yl]pyrimidin-2-yl]phenyl]-3-(2-dimethylaminoethyl)urea]	120 nM
CCNC(=O)Nc1ccc(-c2nc(N3CCOC[C@@H]3C)cc(C3(S(=O)(=O)c4ccccc4F)CC3)n2)cc1 [Example 58e, 1-ethyl-3-[4-[4-[1-(2-fluorophenyl)sulfonylcyclopropyl]-6-[(3S)-3-methylmorpholin-4-yl]pyrimidin-2-yl]phenyl]urea]	2.56 nM
CCNC(=O)Nc1ccc(-c2nc(N3CCOC[C@@H]3C)cc(C3(S(=O)(=O)c4ccccc4C)CC3)n2)cc1 [Example 54e, 1-ethyl-3-[4-[4-[(3S)-3-methylmorpholin-4-yl]-6-[1-(2-methylphenyl)sulfonylcyclo-propyl]pyrimidin-2-yl]phenyl]urea]	7.62 nM
C[C@H]1COCCN1c1cc(C2(S(C)(=O)=O)CC2)nc(-c2ccc(NC(=S)NCCO)cc2)n1 [Example 35b, 3-(2-hydroxyethyl)-1-[4-[4-[(3S)-3-methylmorpholin-4-yl]-6-(1-methylsulfonylcyclopropyl)pyrimidin-2-yl]phenyl]thiourea]	0.577 nM

Reference: patent US20090018134A1, “Compounds - 945” (AstraZeneca AB, priority 2007, published 2009)
